Experimental data reported in patent US20020115703A1, “Prevention of development of dyskinesias” (priority 2000, published 2002).

System: locomotor hyperactivity induced by repeated administration of D-amphetamine
Experiment: Locomotor (ambulatory) activity after repeated D-amphetamine administration (behavioral sensitization), photobeam activity system
Assay type: in vivo, mice
Procedure: The effects of atipamezole on the locomotor hyperactivity induced by repeated administration of D-amphetamine were studied in male mice.
Experiments were performed with C57BL/ 6J strain male mice from Jackson Laboratories. Mice were transferred to the laboratory at least 2 weeks prior to use. The mice were from 8 to 20 weeks of age at the beginning of an experiment. Groups of 10 mice were housed in standard polypropylene cages (38×22×15 cm) with free access to standard certified pelleted food (RM1 Maintenance Expanded SQC; Special Diet Services, Essex, UK) and water. Ambient temperature was 22±1 C.°, and a 12:12 h light dark cycle was maintained with lights on at 6 A.M. All experiments were carried out between 7 A.M. 1 and 5 P.M. The animal care was performed in accordance with International Council for Laboratory Animal Science (ICLAS) guidelines.
D-Amphetamine sulphate (Sigma, St. Louis, Mo., U.S.A.) and atipamezole HCl (Orion Corporation, Orion Pharma, Turku, Finland) were dissolved in saline (0.9% NaCl) and administered subcutaneously (s.c.) in a 5 ml kg volume.
The locomotor activity of the mice was measured in transparent standard polypropylene animal cages (38×22×15 cm) with transparent covers and aspen bedding on the floors. Test cages were placed in the middle of the photobeam frame system (Photobeam Activity System PAS, Cage Rack, San Diego Instruments, San Diego, Calif.). A computer control unit registered the interruptions of photobeams from 16 individual cages. Three different types of movements were monitored: 1) ambulations (large horizontal movements), 2) fine movements (smaller horizontal movements), and 3) rearings (vertical movements). Locomotor activity was measured at 5-min intervals for 2 h immediately after D-amphetamine or saline administrations.
D-amphetamine was administered subcutaneously (s.c.) at a dose of 2 mg/kg. Atipamezole was administered s.c. at a dose of 1 mg/kg 20 min before locomotor activity measurement.
In the chronic treatment group, mice were administered the dose during eight days to elicit provoked locomotor hyperactivity to D-amphetamine and the effect of the atipamezole to the locomotor activity. Mice groups in the chronic treatment schedule were saline, saline-amphetamine, amphetamine, atipamezole and atipamezole-amphetamine. A day before experiment, mice were habituated to the test environment. Test groups with different drug treatments were administrated during four consecutive days. At days five and six, there were no drug administrations nor motor activity testing. At days seven and eight, the produced locomotor hyperactivity and effect of a single exposure of D-amphetamine (saline-amphetamine-group) were analysed. (Table 1).
At day nine, the effect of different atipamezole and amphetamine administrations to the locomotor activity on the chronic treatment groups were analysed. Treatments included saline, 1 mg/kg atipamezole, 2 mg/kg D-amphetamine, 0,3 mg/kg atipamezole- 2 mg/kg D-amphetamine and 1 mg/kg atipamezole- 2 mg/kg D-amphetamine. Chronic treatment groups were saline-, atipamezole-, amphetamine- and atipamezole-amphetamine groups. Chronic groups were treated following the schedule in Table 2.
All data are presented as mean ±SEM. Statistical analysis were performed using SPSS 9.0 for Windows (SPSS, Chicago, Ill.). Separate repeated measure analyses of variance (ANOVA) were performed on each variable for each experiment grouped on time and treatment group. Results were analysed separately, because data were collected in separate experiments with different study design. When significance (P<0.05) between treatment groups was found, comparisons at each time point (date or min) were analysed by using LSD post-hoc test.

Row | SMILES | D-amphetamine induced locomotion at Day 9, chronic atipamezole-amphetamine group (atipamezole 1 mg/kg 20 min before D-amphetamine 2 mg/kg days 1-9, vs amphetamine-amphetamine group (P<0.001), FIG. 2) | D-amphetamine-induced locomotion, chronic atipamezole pre-treatment (atipamezole 1 mg/kg s.c. 20 min before D-amphetamine 2 mg/kg s.c. over days 1-8, vs amphetamine-amphetamine group, Day 2 P<0.05, Days 3-8 P<0.001, FIG. 1) | locomotor activity, atipamezole pre-treatment before saline challenge (atipamezole 1 mg/kg s.c. daily for six days, atipamezole-saline vs saline group at Day 8 (P=0.43), FIG. 1) | D-amphetamine-induced locomotor hyperactivity at Day 9 (expression of sensitization) (chronic amphetamine group, atipamezole 0.3 mg/kg 20 min before D-amphetamine 2 mg/kg at Day 9 (P=0.005), FIG. 2) | D-amphetamine-induced locomotor hyperactivity at Day 9 (expression of sensitization) (chronic amphetamine group, atipamezole 1 mg/kg 20 min before D-amphetamine 2 mg/kg at Day 9 (P<0.001), FIG. 2) | locomotor activity at Day 9 after chronic atipamezole (chronic atipamezole group (1 mg/kg days 1-8), before saline and D-amphetamine challenge at Day 9, FIG. 2) | development of sensitisation: locomotion at Day 9 with D-amphetamine only (chronic atipamezole-amphetamine group given only D-amphetamine 2 mg/kg at Day 9, vs amphetamine-amphetamine group (P=0.026), FIG. 2) | locomotor activity at Day 9, atipamezole before acute D-amphetamine (chronic saline group, atipamezole 0.3 mg/kg 20 min before D-amphetamine 2 mg/kg, compared to D-amphetamine alone (P=0.016), FIG. 2) | locomotor activity at Day 9, atipamezole before acute D-amphetamine (chronic saline group, atipamezole 1 mg/kg 20 min before D-amphetamine 2 mg/kg, compared to D-amphetamine alone (P=0.364), FIG. 2) | total ambulatory activity counts at Day 9, atipamezole alone (chronic saline group, atipamezole 1 mg/kg 20 min before saline at Day 9 (P=0.81), FIG. 2) | development and expression of sensitization (motor overactivity), overall finding (given chronically in combination with D-amphetamine, in mice) | ambulatory activity (2-h overall counts) during repeated administration (D-amphetamine 2 mg/kg s.c., six repeated administrations over days 1-8, compared to saline group, C57BL/6J male mice, FIG. 1) | ambulatory sensitization at Day 9 (chronic amphetamine group, repeated D-amphetamine 2 mg/kg (P<0.001), FIG. 2) | locomotor activity at Day 9, single D-amphetamine challenge (chronic saline group, D-amphetamine 2 mg/kg at Day 9 (P<0.001 vs saline), FIG. 2)
1 | CCC1(c2cnc[nH]2)Cc2ccccc2C1 [atipamezole, 4-(2-ethyl-2,3-dihydro-1H-inden-2-y1)-1H-imidazole] | decreased significantly D-amphetamine induced locomotion | decreased significantly D-amphetamine-induced locomotion | not a statistically significant difference | clearly attenuated the D-amphetamine-induced locomotor hyperactivity | clearly attenuated the D-amphetamine-induced locomotor hyperactivity | the elevation was not statistically significant | true reduction in the development of sensitisation | amplified locomotor activity | had no effect | did not alter total ambulatory activity counts | reduces the development and expression of sensitization | – | – | –
2 | C[C@H](N)Cc1ccccc1 [D-amphetamine] | – | – | – | – | – | – | – | – | – | – | – | progressive enhance in ambulatory activity | developed strong ambulatory sensitization | significantly enhanced locomotor activity
